Source: patent US9404933B2, “Methods for determining patient response to anti-platelet aggregation therapy” (INVITROX, INC., priority 2011, dated 2016)
Read-outs that look alike come from different tables or passages of the source.

Assays:
[1] = system: ADP-induced platelet aggregation; conditions: cited from earlier work; for inhibition of platelet aggregation: patients with ischaemic heart disease, measured at 4 min after addition of 10 μM ADP
human platelets = assay: Focused light scattering size distribution of platelets and microparticles after activation; assay type: cell-based; conditions: normal resting human platelets versus activated; FIG. 8 / FIG. 9
From the text: FIG. 8 is a chart showing the result of the activation of platelets using thrombin receptor activating peptide (TRAP), where platelets are enlarged when activated, and also give off microparticles (MPs).
FIG. 9 is a chart showing the result of the activation of platelets using a calcium ionophore, which destroys platelets, and also causes the platelets to give off microparticles (MPs). Treated and untreated platelet size distributions are shown. What is observed is as the number of platelets decreases, the number of MPs increases.
The ionophore basically destroys the platelet to produce many more MPs. Treated and untreated platelet size distributions are shown. What is observed is as the number of platelets decreases, the number of MPs increases.

[2] = in vivo; cited from earlier work
[3] = system: P2Y12-dependent platelet function; conditions: added in vitro to blood from clopidogrel treated patients; cited from earlier work

SMILES: COC(=O)[C@H](c1ccccc1Cl)N1CCc2sccc2C1 [Plavix, clopidogrel bisulfate]
- delayed onset of action ([1]; loading dose of 300-600 mg): two to five
- inhibition of platelet aggregation ([1]; 4 to 7 days treatment): approximately 60%

SMILES: CC(=O)Oc1cc2c(s1)CCN(C(C(=O)C1CC1)c1ccccc1F)C2 (stereo not drawn) [Prasugrel, 2-acetoxy-5-[alpha-cyclopropylcarbonyl-2-fluorobenzyl]-4,5,6,7-tetrahydrothieno[3,2-c]pyridine]
- inhibition of ADP-induced platelet aggregation ([1]; cross-over study, 60 mg loading dose, also in subjects who responded poorly to a standard loading dose of Clopidogrel): rapid and highgrade, irreversible inhibition

SMILES: CNc1ccc2oc(C[C@H]3O[C@@]4(CC[C@H]3C)O[C@H]([C@H](C)C(=O)c3ccc[nH]3)[C@H](C)C[C@H]4C)nc2c1C(=O)O [calcium ionophore]
- microparticles (MPs) formed on activation of platelets (human platelets): many more MPs

SMILES: CSCCNc1nc(SCCC(F)(F)F)nc2c1ncn2[C@@H]1O[C@H](COP(=O)(O)OP(=O)(O)C(Cl)(Cl)P(=O)(O)O)[C@@H](O)[C@H]1O [cangrelor]
- inhibition of platelet aggregation ([1]; infusion at 2 and 4 μg/mL/min): near complete inhibition
- half-life [2]: 2.6 min
- inhibition of P2Y12-dependent platelet function [3]: near complete inhibition
